# In US20250195567A1, “COMPOSITIONS FOR REMOVING MICROBIAL BIOFILM OR INHIBITING FORMATION THEREOF” (Prudentix Ltd., priority 2022, published 2025):
# Columns and labels:
# [1] = pH of GLDA-PolyP combinations; assay type: physicochemical; conditions: No PolyP
# Experimental: While acidic or basic environment in solution breakdown biofilm, it may be harmful for the human tissue at the periodontal pockets. In this experiment we thus measured the pH levels of the GLDA/PolyP combination that were tested in Example 5.
# [2] = test system: biofilm made of Streptococcus sanguis, Actinomyces naeslundii, Porphyromonas gingivalis, and Fusobacterium nucleatum; experiment: Removal of mature biofilm grown on hydroxyapatite or titanium disks, live/dead staining; assay type: cell-based; conditions: hydroxyapatite discs, GLDA alone at different concentrations
# Experimental: Following assay calibration, biofilm made of Streptococcus sanguis, Actinomyces naeslundii, Porphyromonas gingivalis, and Fusobacterium nucleatum was grown on tooth surfaces (hydroxyapatite (HA) disks) or dental implants surfaces (sandblast acid-etched titanium surfaces, SLA).
# The mature biofilms were washed in saline (control) or saline with PolyP (at 8% to 0.2% w/v) for 45 min at 37° C. The biofilm that remained on the disks was stained with live/dead fluorescent stains and analyzed using a florescence microscope. Results are shown as representative microscopic images (FIG. 1), and as a quantification of the florescence intensity in relative florescence units (RFU) (FIGS. 2-3).
# In this experiment, the ability of the chelating agent GLDA to clear biofilm, either alone or in combination with PolyP at 0.02% and 0.5%, was tested. As described in Example 4, biofilm was grown and treated with the different solutions, and the residual biofilm was stained and quantified. The results are shown as a quantification of the florescence intensity in relative florescence units (RFU) (FIGS. 4-5).
substance,measurement,setting,value
"Tetrasodium N,N-bis(carboxymethyl)-L-glutamate [GLDA]",pH,[1]; GLDA 0.05%,7
same,pH,[1]; GLDA 0.3%,9.6
same,pH,[1]; GLDA 1%,11.5
same,residual biofilm (fluorescence intensity),[2],dose dependent efficacy
